Experimental data published in ChEMBL document CHEMBL6109122 (J Med Chem, 2025).
The source made the active and inactive calls. No cut-off for these calls is given here.

Legend:
Mus musculus [1] = species on record: Mus musculus; experiment: Anti-inflammatory activity in imiquimod-induced female BALB/c mouse psoriasis model assessed as reduction in INF-alpha expression in serum by ELISA method; format: functional, organism-based
[2] = MRT (0 to t) in male ICR mouse at 5 mg/kg, ip measured up to 24 hrs by LC-MS/MS analysis; format: ADME, organism-based; details: in vivo
Mus musculus [3] = experiment: Anti-inflammatory activity in imiquimod-induced female BALB/c mouse psoriasis model assessed as reduction in IL-17 expression in skin at 15 mg/kg, ip administered daily topically for 6 days by ELISA method; format: functional, organism-based; details: time 6.0 day
[4] = Selectivity ratio of IC50 for displacement of fluorophore-labeled probe from JAK2 JH2 domain (unknown origin) to IC50 for displacement of fluorophore-labeled probe from TYK2 JH2 domain (unknown origin)
Mus musculus [5] = species on record: Mus musculus; experiment: Anti-inflammatory activity in imiquimod-induced female BALB/c mouse psoriasis model assessed as reduction in IL-17 expression in skin by ELISA method; format: functional, organism-based
[6] = biological target: T1, Protein cereblon/Non-receptor tyrosine-protein kinase TYK2 (Homo sapiens, UniProt P29597+Q96SW2); experiment: PROTAC activity at CRBN/TYK2 in human Jurkat cells assessed as induction of degradation of TYK2 measured after 10 hrs by Western blot analysis; format: cell-based
Target sequence in this assay (P29597 whole entry): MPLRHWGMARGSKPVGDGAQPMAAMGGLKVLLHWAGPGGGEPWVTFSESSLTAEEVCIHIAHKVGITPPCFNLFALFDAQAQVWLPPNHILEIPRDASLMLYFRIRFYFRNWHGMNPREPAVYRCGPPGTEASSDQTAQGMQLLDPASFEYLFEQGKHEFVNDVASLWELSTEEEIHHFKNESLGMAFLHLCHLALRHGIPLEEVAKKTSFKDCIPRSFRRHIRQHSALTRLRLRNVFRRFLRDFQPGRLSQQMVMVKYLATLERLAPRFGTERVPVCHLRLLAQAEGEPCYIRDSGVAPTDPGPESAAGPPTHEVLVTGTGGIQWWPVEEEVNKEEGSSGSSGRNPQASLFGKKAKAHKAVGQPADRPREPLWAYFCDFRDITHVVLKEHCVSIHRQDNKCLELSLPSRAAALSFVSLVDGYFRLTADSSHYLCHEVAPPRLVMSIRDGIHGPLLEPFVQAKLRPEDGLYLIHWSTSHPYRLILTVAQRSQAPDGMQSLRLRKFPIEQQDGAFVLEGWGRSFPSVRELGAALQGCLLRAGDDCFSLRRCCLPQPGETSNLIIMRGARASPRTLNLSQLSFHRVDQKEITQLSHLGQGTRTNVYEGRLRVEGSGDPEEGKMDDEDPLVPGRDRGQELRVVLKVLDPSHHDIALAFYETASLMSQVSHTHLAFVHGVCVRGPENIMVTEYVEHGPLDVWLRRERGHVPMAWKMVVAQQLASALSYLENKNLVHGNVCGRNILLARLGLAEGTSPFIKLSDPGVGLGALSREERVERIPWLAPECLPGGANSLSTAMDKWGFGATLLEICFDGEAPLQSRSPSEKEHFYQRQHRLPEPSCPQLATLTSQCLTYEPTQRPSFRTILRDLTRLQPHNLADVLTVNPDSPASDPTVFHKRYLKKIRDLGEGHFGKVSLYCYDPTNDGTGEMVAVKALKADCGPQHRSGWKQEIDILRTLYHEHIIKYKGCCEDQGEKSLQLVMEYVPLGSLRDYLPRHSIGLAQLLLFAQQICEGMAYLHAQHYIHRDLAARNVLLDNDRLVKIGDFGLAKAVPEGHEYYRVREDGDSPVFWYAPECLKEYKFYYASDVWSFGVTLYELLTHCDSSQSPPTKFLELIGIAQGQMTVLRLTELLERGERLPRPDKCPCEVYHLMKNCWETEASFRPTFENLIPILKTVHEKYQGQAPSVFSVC
Target sequence in this assay (Q96SW2 whole entry): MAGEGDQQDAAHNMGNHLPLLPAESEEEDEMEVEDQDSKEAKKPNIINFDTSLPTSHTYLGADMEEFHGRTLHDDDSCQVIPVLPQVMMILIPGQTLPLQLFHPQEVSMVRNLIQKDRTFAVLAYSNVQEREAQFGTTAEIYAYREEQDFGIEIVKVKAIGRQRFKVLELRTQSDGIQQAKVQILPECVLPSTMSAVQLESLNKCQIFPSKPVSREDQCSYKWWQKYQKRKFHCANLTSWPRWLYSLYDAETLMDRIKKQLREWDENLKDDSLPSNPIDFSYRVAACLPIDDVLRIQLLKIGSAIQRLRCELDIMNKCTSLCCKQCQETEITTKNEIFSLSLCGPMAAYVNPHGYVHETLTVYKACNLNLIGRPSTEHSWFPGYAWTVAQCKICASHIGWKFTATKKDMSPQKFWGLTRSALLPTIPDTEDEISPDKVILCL

Mus musculus [7] = experiment: Anti-inflammatory activity in imiquimod-induced female BALB/c mouse psoriasis model assessed as reduction in IL-23 expression in skin at 15 mg/kg, ip administered daily topically for 6 days by ELISA method; format: functional, organism-based; details: time 6.0 day
Jurkat [8] = experiment: Downregulation of TYK2 protein level in human Jurkat cells at 1 to 100 nM measured after 10 hrs by Western blot analysis; format: functional, cell-based; details: dose 1-100 nM
[9] = biological target: Non-receptor tyrosine-protein kinase TYK2 (Homo sapiens, UniProt P29597); experiment: Displacement of fluorophore-labeled probe from TYK2 JH2 domain (unknown origin) by HTRF assay
Chain of Non-receptor tyrosine-protein kinase TYK2 (P29597 whole entry, the tested form may be a part): as the sequence (P29597 whole entry) above

Jurkat [10] = experiment: Downregulation of Aiolos level in human Jurkat cells at 30 nM measured after 4 hrs by DIA-Based Proteomic analysis; format: functional, cell-based
[11] = Cmax in male ICR mouse at 5 mg/kg, ip measured up to 24 hrs by LC-MS/MS analysis; format: ADME, organism-based; details: in vivo
[12] = biological target: T1, Protein cereblon/Non-receptor tyrosine-protein kinase TYK2; experiment: PROTAC activity at CRBN/TYK2 in human Jurkat cells assessed as induction of degradation of TYK2 at 1 nM measured after 10 hrs by Western blot analysis relative to control; format: cell-based
Target sequence in this assay (P29597 whole entry, looked up): as the sequence (P29597 whole entry) above
Target sequence in this assay (Q96SW2 whole entry, looked up): as the sequence (Q96SW2 whole entry) above

Jurkat [13] = experiment: Effect on JAK1 protein level in human Jurkat cells at 30 nM measured after 4 hrs by DIA-Based Proteomic analysis; format: functional, cell-based
Jurkat [14] = experiment: Downregulation of TYK2 protein level in human Jurkat cells at 30 nM measured after 4 hrs by DIA-Based Proteomic analysis; format: functional, cell-based
[15] = AUC (0 to t) in male ICR mouse at 5 mg/kg, ip measured up to 24 hrs by LC-MS/MS analysis; format: ADME, organism-based; details: in vivo
Mus musculus [16] = species on record: Mus musculus; experiment: Anti-inflammatory activity in imiquimod-induced female BALB/c mouse psoriasis model assessed as reduction in IL-23 expression in serum by ELISA method; format: functional, organism-based
Mus musculus [17] = experiment: Anti-inflammatory activity in imiquimod-induced female BALB/c mouse psoriasis model assessed as reduction in hyperkeratosis at 5 mg/kg, ip administered daily topically for 6 days by H and E staining based analysis; format: functional, organism-based; details: time 6.0 day
[18] = biological target: Tyrosine-protein kinase JAK2 (Homo sapiens, UniProt O60674); experiment: Binding affinity to JAK2 (unknown origin) by ADP-glo kinase assay
Chain of Tyrosine-protein kinase JAK2 (O60674 whole entry): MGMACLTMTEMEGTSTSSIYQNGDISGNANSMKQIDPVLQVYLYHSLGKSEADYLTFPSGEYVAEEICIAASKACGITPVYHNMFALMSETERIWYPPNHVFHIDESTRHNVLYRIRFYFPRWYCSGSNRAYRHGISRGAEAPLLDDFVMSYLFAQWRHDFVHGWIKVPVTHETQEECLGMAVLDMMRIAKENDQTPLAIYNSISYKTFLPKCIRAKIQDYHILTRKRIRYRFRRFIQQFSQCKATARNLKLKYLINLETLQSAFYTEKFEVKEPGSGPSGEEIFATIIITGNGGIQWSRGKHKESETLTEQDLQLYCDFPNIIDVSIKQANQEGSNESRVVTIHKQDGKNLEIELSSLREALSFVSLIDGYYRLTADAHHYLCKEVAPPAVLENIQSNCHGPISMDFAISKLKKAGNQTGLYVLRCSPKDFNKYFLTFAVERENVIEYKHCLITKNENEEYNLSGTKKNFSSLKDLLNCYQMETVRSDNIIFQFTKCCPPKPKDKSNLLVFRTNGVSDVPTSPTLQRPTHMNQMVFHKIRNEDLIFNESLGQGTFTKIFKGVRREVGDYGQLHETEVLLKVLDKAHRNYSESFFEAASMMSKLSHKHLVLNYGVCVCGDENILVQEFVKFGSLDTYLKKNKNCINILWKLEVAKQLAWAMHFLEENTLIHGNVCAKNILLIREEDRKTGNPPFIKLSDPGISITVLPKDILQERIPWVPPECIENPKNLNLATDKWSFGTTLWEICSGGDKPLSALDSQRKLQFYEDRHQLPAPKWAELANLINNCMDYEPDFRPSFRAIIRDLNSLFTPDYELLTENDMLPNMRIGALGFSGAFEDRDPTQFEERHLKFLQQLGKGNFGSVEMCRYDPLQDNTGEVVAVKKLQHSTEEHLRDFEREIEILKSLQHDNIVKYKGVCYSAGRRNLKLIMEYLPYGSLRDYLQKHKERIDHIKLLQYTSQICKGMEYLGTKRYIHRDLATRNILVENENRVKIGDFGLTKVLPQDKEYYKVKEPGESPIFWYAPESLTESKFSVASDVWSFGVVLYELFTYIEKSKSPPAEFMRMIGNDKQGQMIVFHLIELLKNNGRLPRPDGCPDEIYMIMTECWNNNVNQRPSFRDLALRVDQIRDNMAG

Jurkat [19] = experiment: Downregulation of JAK3 protein level in human Jurkat cells at 1 to 100 nM measured after 10 hrs by Western blot analysis; format: functional, cell-based; details: dose 1-100 nM
[20] = biological target: T1, Protein cereblon/Non-receptor tyrosine-protein kinase TYK2; experiment: PROTAC activity at CRBN/TYK2 in human Jurkat cells assessed as induction of degradation of TYK2 at 10 nM measured after 10 to 36 hrs by Western blot analysis relative to control; format: cell-based; details: time 10-36 hrs
Target sequence in this assay (P29597 whole entry, looked up): as the sequence (P29597 whole entry) above
Target sequence in this assay (Q96SW2 whole entry, looked up): as the sequence (Q96SW2 whole entry) above

[21] = Metabolic stability in mouse liver microsomes assessed as half life measured up to 120 mins by LC-MS/MS analysis; format: ADME, Microsome
[22] = biological target: T2, Tyrosine-protein kinase JAK3 (Homo sapiens, UniProt P52333); experiment: Binding affinity to JAK3 (unknown origin) by ADP-glo kinase assay
T2 sequence (P52333 whole entry): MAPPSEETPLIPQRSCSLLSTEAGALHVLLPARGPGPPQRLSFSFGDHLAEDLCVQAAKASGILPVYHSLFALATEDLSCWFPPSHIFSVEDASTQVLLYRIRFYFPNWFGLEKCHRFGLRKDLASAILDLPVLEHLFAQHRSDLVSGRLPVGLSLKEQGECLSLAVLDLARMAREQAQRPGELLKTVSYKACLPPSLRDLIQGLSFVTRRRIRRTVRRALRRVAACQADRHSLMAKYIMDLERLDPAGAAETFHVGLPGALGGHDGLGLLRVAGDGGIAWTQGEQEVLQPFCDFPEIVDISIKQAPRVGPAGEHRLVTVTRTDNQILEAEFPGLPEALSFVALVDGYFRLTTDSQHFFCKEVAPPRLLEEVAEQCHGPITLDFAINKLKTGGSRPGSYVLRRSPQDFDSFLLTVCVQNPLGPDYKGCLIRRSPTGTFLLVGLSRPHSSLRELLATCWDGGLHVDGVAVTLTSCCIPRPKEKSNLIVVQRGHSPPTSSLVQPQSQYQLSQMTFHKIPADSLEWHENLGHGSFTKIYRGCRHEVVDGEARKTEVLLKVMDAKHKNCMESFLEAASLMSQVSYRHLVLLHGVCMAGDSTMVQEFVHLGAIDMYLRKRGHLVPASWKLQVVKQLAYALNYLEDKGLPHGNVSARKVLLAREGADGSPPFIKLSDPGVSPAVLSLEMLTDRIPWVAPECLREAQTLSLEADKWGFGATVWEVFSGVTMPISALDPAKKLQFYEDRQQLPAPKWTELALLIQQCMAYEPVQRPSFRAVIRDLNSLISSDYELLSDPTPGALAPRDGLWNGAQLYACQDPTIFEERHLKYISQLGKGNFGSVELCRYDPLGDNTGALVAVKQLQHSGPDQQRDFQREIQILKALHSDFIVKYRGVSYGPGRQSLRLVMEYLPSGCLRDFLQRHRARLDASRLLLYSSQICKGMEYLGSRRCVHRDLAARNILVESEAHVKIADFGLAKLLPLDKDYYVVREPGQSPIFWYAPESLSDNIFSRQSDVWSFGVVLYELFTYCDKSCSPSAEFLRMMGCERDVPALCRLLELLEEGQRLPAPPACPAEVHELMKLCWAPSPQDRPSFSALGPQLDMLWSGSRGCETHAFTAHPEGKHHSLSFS

Mus musculus [23] = experiment: Anti-inflammatory activity in imiquimod-induced female BALB/c mouse psoriasis model assessed as reduction in concomitant splenomegaly at 5 mg/kg, ip administered daily topically for 6 days; format: functional, organism-based; details: time 6.0 day
Mus musculus [24] = experiment: Anti-inflammatory activity in imiquimod-induced female BALB/c mouse psoriasis model assessed as reduction in inflammatory infiltration at 5 mg/kg, ip administered daily topically for 6 days by H and E staining based analysis; format: functional, organism-based; details: time 6.0 day
Mus musculus [25] = experiment: Anti-inflammatory activity in imiquimod-induced female BALB/c mouse psoriasis model assessed as effect on body weight at 5 mg/kg, ip administered daily topically for 6 days; format: functional, organism-based; details: time 6.0 day

CNC(=O)c1cnc(Nc2ccc(C(=O)NC3CCC(Nc4ccc5c(c4)C(=O)N(C4CCC(=O)NC4=O)C5=O)CC3)cn2)cc1Nc1cccc(-c2ncc(F)cn2)c1OC (stereo not given)
Activity (Mus musculus [1]): Active | MRT last at 24 h [2]: 4.1 h | Activity (Mus musculus [3]): Active | Ratio IC50 [4]: > 80 | Activity (Mus musculus [5]): Active | DC50 [6]: 0.42 nM | Activity (Mus musculus [7]): Active | Activity (Jurkat [8]): Active | IC50 [9]: 1.2 nM | Activity (Jurkat [10]): inactive | Cmax [11]: 1300 ng/mL | Activity [12]: 63% | Activity (Jurkat [13]): inactive | Activity (Jurkat [14]): Active | AUC(0-t) at 24 h [15]: 4770 ng·h/mL | Activity (Mus musculus [16]): Active | Activity (Mus musculus [17]): Active | IC50 [18]: > 10000 nM | Activity (Jurkat [19]): Active | Activity [20]: 90% | half-life [21]: 1.68 h | IC50 [22]: > 10000 nM | Activity (Mus musculus [23]): Active | Activity (Mus musculus [24]): Active | Activity (Mus musculus [25]): Active
